According to US8071581B2, “Triazolopyridazine protein kinase modulators” (SGX Pharmaceuticals, Inc., priority 2006, dated 2011):

How the values were obtained:
GTL16 = GTL16 cell assay (EC50); format: cell-based; conditions: Homo sapiens, GTL 16
Procedure: Compounds were tested in the following assays in duplicate. 96-well XTT assay: Cells were grown in growth media containing various concentrations of compounds (duplicates) on a 96-well flat bottom plate for 72 hours at 37° C. in 5% CO2. The starting cell number was 5000 cells per well and volume was 120 μl. At the end of the 72-hour incubation, 40 μl of XTT labeling mixture (50:1 solution of sodium 3′-[1-(phenylaminocarbonyl)-3,4-tetrazolium]-bis(4-methoxy-6-nitro) benzene sulfonic acid hydrate and Electron-coupling reagent: PMS (N-methyl dibenzopyrazine methyl sulfate) were added to each well of the plate. After an additional 2-6 hours […] with a spectrophotometer.

[1] = target: MET kinase (c-MET), kinase domain of human Met (Homo sapiens, UniProt P08581); experiment: MET luminescence-based enzyme assay (Kinase-Glo)
MET kinase (c-MET), kinase domain of human Met, sequence (P08581 1078-1345 limits assumed): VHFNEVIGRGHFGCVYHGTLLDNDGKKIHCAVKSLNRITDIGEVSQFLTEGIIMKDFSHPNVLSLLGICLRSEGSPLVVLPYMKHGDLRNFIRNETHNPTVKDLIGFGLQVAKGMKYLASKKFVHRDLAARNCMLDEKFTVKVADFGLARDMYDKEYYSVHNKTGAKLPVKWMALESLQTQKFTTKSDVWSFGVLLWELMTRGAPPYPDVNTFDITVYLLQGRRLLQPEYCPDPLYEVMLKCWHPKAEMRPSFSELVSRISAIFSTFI

EC50 (GTL16; Table 1) [nM] | IC50 [1] [nM] | EC50 (GTL16; Table 2) [nM] | SMILES
< 100 | < 100 |  | Cn1cc(-c2ccc3nnc(Cc4c(F)cc5ncccc5c4F)n3n2)cn1 [compound 87]
100 to 1000 | 100 to 1000 |  | c1cnc2ccc(Cc3nnc4ccc(N5CCCCC5)nn34)cc2c1 [compound 112]
 | < 100 | < 100 | Cc1ccc2nnc(Cc3cc4cc(-c5cnn(C)c5)cnc4cc3F)n2n1 [compound 158]
 | < 100 | < 100 | CCn1cc(-c2cnc3ccc(Cc4nnc5ccc(C)nn45)cc3c2)cn1 [compound 162]
10000 to 50000 | 1000 to 10000 |  | NS(=O)(=O)c1ccc(Oc2ccc3nnc(Cc4ccc5ncccc5c4)n3n2)cc1 [compound 10]
 | < 100 | < 100 | Cc1ccc2nnc(Cc3ccc4ncc(-c5cnn(CC6CN(C(=O)OC(C)(C)C)C6)c5)cc4c3)n2n1 [compound 169]
100 to 1000 | 100 to 1000 |  | c1ccc(-c2ccc3nnc(Cc4ccc5ncsc5c4)n3n2)cc1 [compound 43]
10000 to 50000 | 1000 to 10000 |  | CS(=O)(=O)c1ccc(Oc2ccc3nnc(Cc4ccc5ncccc5c4)n3n2)cc1 [compound 12]
100 to 1000 | < 100 |  | CC(C)NC(=O)c1ccc(-c2ccc3nnc(Cc4ccc5ncsc5c4)n3n2)cc1F [compound 95]
 | 100 to 1000 | 1000 to 10000 | Cc1ccc2nnc(Cc3ccc4ncc(-c5cccc(C(=O)O)c5)cc4c3)n2n1 [compound 135]
 | < 100 | < 100 | Cn1cc(-c2cnc3ccc(Cc4nnc5ccc(N)nn45)cc3c2)cn1 [compound 161]
1000 to 10000 | 100 to 1000 |  | CNC(=O)c1cccc(-c2ccc3nnc(Cc4ccc5ncccc5c4)n3n2)c1 [compound 58]
 | < 100 | 1000 to 10000 | Cc1ccc2nnc(Cc3ccc4ncc(-c5ccc[nH]5)cc4c3)n2n1 [compound 138]
< 100 | < 100 |  | CNC(=O)c1ccc(-c2ccc3nnc(C(C)c4ccc5ncsc5c4)n3n2)cc1F (stereo not drawn) [compound 82]
 | < 100 | 100 to 1000 | Cc1ccc2nnc(Cc3ccc4ncc(-c5cn[nH]c5)cc4c3)n2n1 [compound 125, 6-(6-Methyl-[1,2,4]triazolo[4,3-b]pyridazin-3-ylmethyl)-3-(1H-pyrazol-4-yl)-quinoline]
100 to 1000 | < 100 |  | OCc1ccc(-c2ccc3nnc(Cc4ccc5ncccc5c4)n3n2)cc1 [compound 54]
100 to 1000 | < 100 |  | CS(=O)(=O)c1cccc(-c2ccc3nnc(Cc4ccc5ncsc5c4)n3n2)c1 [compound 102]
 | < 100 | < 100 | Cc1ccc2nnc(Cc3ccc4ncc(-c5cccc(C#N)c5)cc4c3)n2n1 [compound 130]
 | < 100 | < 100 | CCN1CC(Cn2cc(-c3cnc4ccc(Cc5nnc6ccc(C)nn56)cc4c3)cn2)C1 [compound 180]
100 to 1000 | < 100 |  | O=S(=O)(NC1CC1)c1ccc(-c2ccc3nnc(Cc4ccc5ncccc5c4)n3n2)cc1 [compound 1]

EC50 (GTL16; Table 1) [nM] | IC50 [1] [nM] | EC50 (GTL16; Table 2) [nM] | SMILES
< 100 | < 100 |  | Cc1cc2ncccc2cc1Cc1nnc2ccc(-c3cnn(C)c3)nn12 [compound 84]
 | 100 to 1000 | 1000 to 10000 | Cc1ccc2nnc(Cc3ccc4ncc(-c5cncnc5)cc4c3)n2n1 [compound 129]
 | < 100 | 100 to 1000 | Cc1ccc2nnc(Cc3ccc4ncc(-c5cnn(C6CN(S(C)(=O)=O)C6)c5)cc4c3)n2n1 [compound 182]
 | < 100 | 100 to 1000 | Cc1ccc2nnc(Cc3ccc4ncc(-c5cnn(CCC(N)=O)c5)cc4c3)n2n1 [compound 154]
100 to 1000 | < 100 |  | CS(=O)(=O)Nc1cccc(-c2ccc3nnc(Cc4ccc5ncccc5c4)n3n2)c1 [compound 51]
 | < 100 | < 100 | Cc1ccc2nnc(Cc3ccc4ncc(-c5cnn(C6CCNCC6)c5)cc4c3)n2n1 [compound 126]
 | < 100 | < 100 | CNc1ccc2nnc(Cc3ccc4ncc(-c5cnn(C)c5)cc4c3)n2n1 [compound 160]
< 100 | < 100 |  | Cc1cc2ncccc2cc1Cc1nnc2ccc(-c3cccc(C#N)c3)nn12 [compound 85]
100 to 1000 | < 100 |  | Cc1cccc(-c2ccc3nnc(Cc4ccc5ncccc5c4)n3n2)c1 [compound 35]
< 100 | < 100 |  | FC(F)(F)c1cccc(-c2ccc3nnc(Cc4ccc5ncccc5c4)n3n2)c1 [compound 78]
 | < 100 | 100 to 1000 | CC(=O)N1CC(n2cc(-c3cnc4ccc(Cc5nnc6ccc(C)nn56)cc4c3)cn2)C1 [compound 175, 1-(3-{4-[6-(6-Methyl-[1,2,4]triazolo[4,3-b]pyridazin-3-ylmethyl)-quinolin-3-yl]-pyrazol-1-yl}-azetidin-1-yl)-ethanone]
1000 to 10000 | 100 to 1000 |  | Nc1nc2ccc(Cc3nnc4ccc(-c5ccccc5)nn34)cc2s1 [compound 42]
100 to 1000 | 100 to 1000 |  | O=C(NC1CCCC1)c1cccc(-c2ccc3nnc(Cc4ccc5ncccc5c4)n3n2)c1 [compound 33]
100 to 1000 | < 100 |  | Fc1cc(F)cc(-c2ccc3nnc(Cc4ccc5ncccc5c4)n3n2)c1 [compound 70]
100 to 1000 | 100 to 1000 |  | C=Cc1ccc2nnc(Cc3ccc4ncccc4c3)n2n1 [compound 107]
10000 to 50000 | 1000 to 10000 |  | Oc1ccc(Cc2nnc3ccc(Cl)nn23)cc1 [compound 13]
1000 to 10000 | 100 to 1000 |  | NC(=O)c1ccc(F)c(-c2ccc3nnc(Cc4ccc5ncccc5c4)n3n2)c1 [compound 4]
< 100 | < 100 |  | NCc1ccc(-c2ccc3nnc(Cc4ccc5ncccc5c4)n3n2)cc1 [compound 32]
100 to 1000 | < 100 |  | CNC(=O)c1ccc(-c2ccc3nnc(Cc4ccc5ncccc5c4)n3n2)cc1 [compound 66]
 | < 100 | 100 to 1000 | Cc1ccc2nnc(Cc3ccc4ncc(-c5cnn(CC6CNC6)c5)cc4c3)n2n1 [compound 155, 3-(1-Azetidin-3-ylmethyl-1H-pyrazol-4-yl)-6-(6-methyl-[1,2,4]triazolo[4,3-b]pyridazin-3-ylmethyl)-quinoline]

EC50 (GTL16; Table 1) [nM] | IC50 [1] [nM] | EC50 (GTL16; Table 2) [nM] | SMILES
 | < 100 | < 100 | Cc1ccc2nnc(Cc3c(F)cc4ncc(-c5cnn(CCN6CCOCC6)c5)cc4c3F)n2n1 [compound 146]
 | < 100 | < 100 | Cc1ccc2nnc(Cc3ccc4ncc(-c5cnn(CCN(C)C)c5)cc4c3)n2n1 [compound 168]
 | < 100 | < 100 | Cn1cc(-c2cnc3ccc(Cc4nnc5ccc(-c6cnn(C)c6)nn45)cc3c2)cn1 [compound 141]
100 to 1000 | 100 to 1000 |  | O=C(c1ccc(-c2ccc3nnc(Cc4ccc5ncccc5c4)n3n2)cc1)N1CCOCC1 [compound 23]
100 to 1000 | 100 to 1000 |  | COc1cccc(Oc2ccc3nnc(Cc4ccc5ncccc5c4)n3n2)c1 [compound 9]
 | < 100 | < 100 | Cn1cc(-c2cnc3ccc(Cc4nnc5nccnn45)cc3c2)cn1 [compound 179, 3-(1-Methyl-1H-pyrazol-4-yl)-6-[1,2,4]triazolo[4,3-b][1,2,4]triazin-3-ylmethyl-quinoline]
 | < 100 | < 100 | Cc1ccc2nnc(Cc3c(F)cc4ncc(-c5cnn(C)c5)cc4c3F)n2n1 [compound 145, 5,7-Difluoro-3-(1-methyl-1H-pyrazol-4-yl)-6-(6-methyl-[1,2,4]triazolo[4,3b]pyridazin-3-ylmethyl)-quinoline]
100 to 1000 | < 100 |  | N#CCc1cccc(-c2ccc3nnc(Cc4ccc5ncccc5c4)n3n2)c1 [compound 61]
1000 to 10000 | 100 to 1000 |  | CN(C)S(=O)(=O)c1ccc(-c2ccc3nnc(Cc4ccc5ncccc5c4)n3n2)cc1 [compound 29]
 | < 100 | 1000 to 10000 | Cc1ccc2nnc(Cc3ccc4ncc(-c5cnn(C6(C(=O)O)CCC6)c5)cc4c3)n2n1 [compound 164]
< 100 | < 100 |  | CC(c1ccc2ncccc2c1)c1nnc2ccc(-c3cccc(F)c3)nn12 (stereo not drawn) [compound 20]
100 to 1000 | < 100 |  | O=C(NCCO)c1ccc(-c2ccc3nnc(Cc4ccc5ncccc5c4)n3n2)cc1F [compound 74]
 | < 100 | 100 to 1000 | Cc1ccc2nnc(Cc3ccc4ncc(-c5cnn(C6CNC6)c5)cc4c3)n2n1 [compound 153]
 | < 100 | 1000 to 10000 | Cc1ccc2nnc(Cc3ccc4ncc(-c5cnn(CC(N)=O)c5)cc4c3)n2n1 [compound 149, 2-{4-[6-(6-Methyl-[1,2,4]triazolo[4,3-b]pyridazin-3-ylmethyl)-quinolin-3-yl]-pyrazol-1-yl}-acetamide]
100 to 1000 | 100 to 1000 |  | C/C=C/c1ccc2nnc(Cc3ccc4ncccc4c3)n2n1 [compound 46]
< 100 | < 100 |  | Fc1cccc(-c2ccc3nnc(Cc4ccc5ncccc5c4)n3n2)c1 [compound 31]
 | < 100 | 100 to 1000 | Cc1ccc2nnc(Cc3ccc4ncc(-c5cc6ccccc6[nH]5)cc4c3)n2n1 [compound 137]
10000 to 50000 | 1000 to 10000 |  | NC(=O)c1ccc(Oc2ccc3nnc(Cc4ccc5ncccc5c4)n3n2)cc1 [compound 11]
 | < 100 | < 100 | COc1ccc2nnc(Cc3ccc4ncc(-c5cnn(C)c5)cc4c3)n2n1 [compound 140, 6-(6-Methoxy-[1,2,4]triazolo[4,3-b]pyridazin-3-ylmethyl)-3-(1-methyl-1H-pyrazol-4-yl)-quinoline]
< 100 | < 100 |  | CC(c1ccc2ncsc2c1)c1nnc2ccc(-c3cnn(C)c3)nn12 (stereo not drawn) [compound 79]
